According to patent US8765749B2, “1,6-disubstituted indole compounds as protein kinase inhibitors” (Korea Institute of Science and Technology, priority 2009, dated 2014):
pIC50: −log10 of the molar value.

Key:
[1] = target: T1, B-Raf (V600E) (Homo sapiens, UniProt P15056, V600E); assay: Measurement of B-Raf-V600E kinase activity (MEK1 (K97R) phosphorylation, [γ-32P] ATP); type: biochemical; settings: read-out: B-Raf kinase inhibition activity (% inhibition at 1 μM)
T1 construct: purchased Cell Signaling #7663
Procedure: (1) Activation of MEK1 (K97R) by B-Raf
Base reaction buffer (20 mM Hepes (pH 7.5), 10 mM MgCl2, 1 mM EGTA, 0.02% Brij35, 0.02 mg/mL BSA, 0.1 mM Na3VO, 2 mM DTT, 1% DMSO) was prepared. B-Raf (V600E) (Cell Signaling #7663) diluted to 30 nM was added at a final concentration of 10 nM, and MEK1 (K97R) (Upstate #14-737) diluted to 3 μM was added at a final concentration of 1 μM. The test compound was prepared at a concentration of 10 mM in dimethylsulfoxide (DMSO) and diluted to various concentrations. The final volume was adjusted to 20 μL and, after completely mixing, the mixture was allowed to react at room temperature for 30 minutes.
(2) Phosphorylation of MEK1 (K97R)
[γ-32P] ATP (100 μCi/container) diluted to 1/10 was added in 10 μL aliquots. After completely mixing, the mixture was allowed to react at room temperature for 2 hours. After placing P81 paper in a scintillation vial, spotting was performed using 30 μL of the reaction mixture. After washing 3 times with 0.75% phosphoric acid for 10 minutes and washing once with acetone for 10 minutes, 5 mL of scintillation cocktail was added to the scintillation vial holding the washed P81 paper. Signals were recorded using a scintillation counter.

[2] = test system: A375P cells; assay: Inhibition activity against proliferation of A375P melanoma cells (MTT assay); settings: Homo sapiens, read-out: Inhibition activity against proliferation of A375P cells (GI50, μM)
[3] = test system: SK-MEL28 cells; assay: Inhibition activity against proliferation of SK-MEL28 melanoma cells (MTT assay); settings: Homo sapiens, SK-MEL-28, read-out: Inhibition activity against proliferation of SK-MEL28 cells (GI50, μM)
[4] = test system: A375 melanoma cells; settings: read-out: proliferation of A375 melanoma cells IC50; cited from earlier work
[5] = cited from earlier work

T1 sequence (P15056 whole entry V600E): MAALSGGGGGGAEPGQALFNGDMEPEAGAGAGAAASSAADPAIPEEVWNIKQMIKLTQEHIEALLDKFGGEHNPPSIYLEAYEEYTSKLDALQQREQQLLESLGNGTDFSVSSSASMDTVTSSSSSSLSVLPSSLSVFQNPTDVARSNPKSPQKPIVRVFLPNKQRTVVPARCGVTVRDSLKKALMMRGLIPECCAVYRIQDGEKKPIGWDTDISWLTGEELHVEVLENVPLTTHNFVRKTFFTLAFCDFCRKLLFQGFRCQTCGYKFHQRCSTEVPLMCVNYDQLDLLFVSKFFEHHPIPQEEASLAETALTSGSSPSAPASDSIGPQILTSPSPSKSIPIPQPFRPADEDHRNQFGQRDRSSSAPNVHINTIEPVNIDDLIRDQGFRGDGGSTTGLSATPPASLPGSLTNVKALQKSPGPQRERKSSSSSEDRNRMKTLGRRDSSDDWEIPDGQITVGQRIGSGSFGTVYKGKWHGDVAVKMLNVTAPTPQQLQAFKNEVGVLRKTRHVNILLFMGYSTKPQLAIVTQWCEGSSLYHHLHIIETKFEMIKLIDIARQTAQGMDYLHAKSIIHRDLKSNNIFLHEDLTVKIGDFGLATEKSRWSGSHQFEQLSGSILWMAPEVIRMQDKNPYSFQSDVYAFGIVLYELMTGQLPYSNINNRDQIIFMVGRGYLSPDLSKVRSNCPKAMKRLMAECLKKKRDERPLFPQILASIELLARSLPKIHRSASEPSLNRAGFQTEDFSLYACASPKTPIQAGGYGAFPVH

**Q.** Which inhibition at 1 µM [1] does the source give for `COc1ccccc1NC(=O)Nc1ccc(C)c(-c2ccc3ccn(-c4cc(N)ncn4)c3c2)c1` [Example 21, 1-(3-(1-(6-aminopyrimidin-4-yl)-1H-indol-6-yl)-4-methylphenyl)-3-(2-methoxyphenyl)urea] here?
**A.** > 50%

**Q.** What about the GI50 [2] of the same compound?
**A.** < 10 µM

**Q.** And the GI50 [3]?
**A.** < 10 µM

**Q.** What does the source list for `CNc1cc(-n2ccc3ccc(-c4cccc(NC(=O)Nc5ccccc5OC)c4)cc32)ncn1` [Example 22, 1-(2-methoxyphenyl)-3-(3-(1-(6-(methylamino)pyrimidin-4-yl)-1H-indol-6-yl)phenyl)urea]?
**A.** inhibition at 1 µM [1]: > 50%; GI50 [2]: < 10 µM; GI50 [3]: < 10 µM

**Q.** Which inhibition at 1 µM [1] does the source give for `COc1ccccc1NC(=O)Nc1cccc(-c2ccc3ccn(-c4cc(NC(=O)C5CC5)ncn4)c3c2)c1` [Example 26, N-(6-(6-(3-(3-(2-methoxyphenyl)ureido)phenyl)-1H-indol-1-yl)pyrimidin-4-yl)cyclopropanecarboxamide] here?
**A.** > 50%

**Q.** What about the GI50 [2] of the same compound?
**A.** < 10 µM

**Q.** And the GI50 [3]?
**A.** < 10 µM

**Q.** With `CCCS(=O)(=O)Nc1ccc(F)c(C(=O)c2c[nH]c3ncc(Cl)cc23)c1F` [PLX4720] as the compound, how does the pIC50 [4] read?
**A.** 6.30

**Q.** What does the source list for `CNC(=O)c1cc(Oc2ccc(NC(=O)Nc3ccc(Cl)c(C(F)(F)F)c3)cc2)ccn1` [sorafenib, Sorafenib]?
**A.** skin toxicity ([5]; 600 mg (twice a day)): grade 3 skin toxicity; maximum allowed administration dose ([5]; clinical trial phase II, twice a day): 400 mg
